Reference: US9067898B1, “Isothiazole derivatives as GPR120 agonists for the treatment of type II diabetes” (Janssen Pharmaceutica NV, priority 2014, dated 2015)
pEC50: −log10 of the molar value.

Assays:
[1] = target: T1, Human GPR120 short form (Homo sapiens, UniProt Q5NUL3); assay: Human GPR120 calcium flux assay (FLIPR), Procedure Calcium B; type: cell-based; conditions: HEK-293 cells expressing human GPR120 short form, 4200 cells/well; read-out: GPR120 Ca2+ Assay B EC50
T1 construct: expressed in transfected cells
T1 sequence (Q5NUL3 1-361): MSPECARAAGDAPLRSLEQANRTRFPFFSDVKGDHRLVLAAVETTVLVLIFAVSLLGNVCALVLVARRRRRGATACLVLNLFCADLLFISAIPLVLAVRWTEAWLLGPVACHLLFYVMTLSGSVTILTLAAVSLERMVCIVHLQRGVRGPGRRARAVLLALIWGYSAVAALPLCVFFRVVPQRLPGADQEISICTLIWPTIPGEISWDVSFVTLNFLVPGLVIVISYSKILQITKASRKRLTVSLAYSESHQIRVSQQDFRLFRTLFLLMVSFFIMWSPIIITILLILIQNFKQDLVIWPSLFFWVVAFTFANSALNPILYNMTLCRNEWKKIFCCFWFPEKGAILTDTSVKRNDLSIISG
Excerpt: This in vitro assay serves to assess test compound agonist activity against the short splice variant (SVS with Accession number NM_001195755.1 confirmed by sequencing data) of the GPR120 receptor. The Human Short splice variant #2 (NM_001195755.1) is missing an in-frame coding exon compared to variant 1 (the Human Long splice variant NM_181745.3), resulting in a shorter isoform (GPR120-S) lacking a 16 aa protein segment compared to isoform GPR120-L. The assay platform utilizes HEK-293 cells stably transfected to express the Human GPR120 short form. These cells are first loaded with the Ca^+2 sensitive dye, Fluo-4 NW. Upon stimulation, intracellular released Ca^+2 can bind to the dye and alter its fluorescence intensity. This increase in fluorescence signal, and thus the flux in intracellular [Ca^2+], is detected and quantitated by fluorescence imaging using a FLIPR reader. The effect of the agonist is measured as a function of concentration and used to calculate an EC50 based upon a response curve.
In this procedure 4200 cells/well were employed.
A Human GPR120 clone (Genbank accession number NM_001195755.1) was placed into the pcDNA3.1 mammalian expression vector carrying the neomycin resistance gene. A stable mammalian cell was generated by placing the above clone into a HEK293 background. Clonal cells responding to long chain fatty acids had expression levels of GPR120 confirmed by RT-qPCR. Human HEK-GPR120 cells were cultured in Dulbecco's Modified Eagle's Medium (DMEM)/F12 medium supplemented with 10% fetal bovine serum (FBS), 1% L-Glutamine and 1% penicillin/streptomycin and 0.5 mg/ml G-418. Cells were split 2 times a week to keep the cells in the log-phase growth.
In preparation for the assay, HEK cells stably transfected with Human GPR120 (2.5K cells per well in 25 uL growth medium) were seeded into 384-well plates and then incubated overnight (37° C., 5% CO2). The next day, the media was changed to 20 μL assay buffer and the cell starved for 1 h at 37° C. The dye loading solution (2× dye) was prepared using 10 mL assay buffer, 100 μL of 250 mM probenecid, 1 bottle of Component A, and 20 μl of dye in DMSO. Twenty μL of the 2× dye loading buffer was then added to each well. The plates were incubated at 37° C. for 30 min, then at room temperature for an additional 15 minutes, before performing the assay on FLIPR. Test compounds were prepared in assay buffer (2 uL of cpd+198 uL assay buffer, final DMSO in assay plate is 0.2%) at the desired concentration, more particularly at 100, 50, 25, 12.5, 6.25, 3.125, 1.562, 0.781, 0.391, 0.195, 0.098, 0.049, 0.024 and 0.012 μM.
The assay was performed on a FLIPR plate reader using the following parameters. Baseline was read for 10 seconds at 1 sec intervals. The program was set to transfer 10 μL of ligand from compound plate to cell plate after baseline reading. Aspiration was executed at: 10 μL/sec speed, 4.6 μL height; Dispensing was executed at: 30 μL/sec speed, 45 μL height. After compound addition, each well was read for 300 sec, with measurements collected at 1 sec intervals.
The kinetic data from the FLIPR was based upon a 5 minute window for data collection. The fluorescence of each sample well was used for individual calculations of a normalized RFU value, which was defined as maximum response minus the minimum response. The normalized fluorescence reading (RFU) was calculated as follows: RFU=Fmax−Fmin The data were fitted to a sigmoidal dose-response curve with a variable Hill slope (<2) using nonlinear regression with GraphPad Prism 5.0 to calculate the EC50 values. The Fitting Equation was: Y=Bottom+(Top−Bottom)/(1+10^((Log EC50−X)*HillSlope)), where X is the log of the concentration and Y is the response.

[2] = target: T2, short form of the GPR120 receptor (GPR120S) (Homo sapiens, UniProt Q5NUL3); assay: Human GPR120 DiscoveRx PathHunter Beta-Arrestin assay, Procedure β-arrestin B; type: cell-based; conditions: PathHunter CHO-K1 GPR120S β-Arrestin cell line, 5000 cells/well, read-out: hGPR120 β-arrestin B EC50
T2 construct: host or cells: PathHunter CHO-K1 GPR120S β-Arrestin Cell Line
How it was run: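 PathHunter CHO-K1 β-arrestin cells expressed long-form GPR120 (Procedure A, 3000 cells/well) or short-form GPR120 (Procedure B, 5000 cells/well). Compounds were serially diluted from 25 µM and incubated 90 min at 37 °C in HBSS/20 mM HEPES/0.1% BSA, pH 7.4. Luminescence was read after 60 min detection at RT; EC50 comes from % activity versus positive control, Hill slope fixed at 1.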

T2 sequence (P32121 whole entry partner, one chain of several): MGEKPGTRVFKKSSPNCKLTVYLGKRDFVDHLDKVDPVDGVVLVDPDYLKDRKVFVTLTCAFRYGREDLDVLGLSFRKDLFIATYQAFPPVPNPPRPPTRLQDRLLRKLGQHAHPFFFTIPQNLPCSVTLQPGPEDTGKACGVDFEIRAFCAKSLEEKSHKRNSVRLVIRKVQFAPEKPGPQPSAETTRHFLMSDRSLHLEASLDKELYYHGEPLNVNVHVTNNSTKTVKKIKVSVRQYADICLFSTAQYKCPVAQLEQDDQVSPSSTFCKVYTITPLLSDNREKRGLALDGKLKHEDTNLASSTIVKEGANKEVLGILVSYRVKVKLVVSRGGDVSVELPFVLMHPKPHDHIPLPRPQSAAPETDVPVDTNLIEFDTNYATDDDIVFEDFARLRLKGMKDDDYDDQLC

| Structure (SMILES) | pEC50 [1] | pEC50 [2] |
| --- | --- | --- |
| COc1ccc(-c2nsc(C(F)(F)F)c2COc2c(F)cc(CCC(=O)O)cc2F)nc1 [Cpd 271, 3-(3,5-Difluoro-4-{[3-(5-methoxypyridin-2-yl)-5-(trifluoromethyl)isothiazol-4-yl]methoxy}phenyl)propanoic acid] | 6.62 | 6.49 |
| O=C(O)CCc1cc(F)c(OCc2c(-c3ccc(Cl)cn3)nsc2C(F)(F)F)c(F)c1 [Cpd 270, 3-(4-{[3-(5-Chloropyridin-2-yl)-5-(trifluoromethyl)isothiazol-4-yl]methoxy}-3,5-difluorophenyl)propanoic acid] | 6.97 | 6.61 |
| CC(Cc1ccc(OCc2c(-c3ncc(Cl)cc3F)nsc2C(F)(F)F)c(F)c1)C(=O)O (stereo not shown) [Cpd 266, 3-(4-{[3-(5-Chloro-3-fluoropyridin-2-yl)-5-(trifluoromethyl)isothiazol-4-yl]methoxy}-3-fluorophenyl)-2-methylpropanoic acid] | 6.54 | 6.01 |
| Cc1cc(OCc2c(-c3ccc(Cl)cc3)nsc2C(F)(F)F)c(F)cc1CCCO [Cpd 63, 3-(4-((3-(4-chlorophenyl)-5-(trifluoromethyl)isothiazol-4-yl)methoxy)-5-fluoro-2-methylphenyl)propan-1-61] | 6.70 | 6.91 |
| Cc1c(CCC(=O)O)ccc(OCc2c(-c3cnc(Cl)s3)nsc2C(F)(F)F)c1C [Cpd 269, 3-(4-{[3-(2-Chloro-1,3-thiazol-5-yl)-5-(trifluoromethyl)isothiazol-4-yl]methoxy}-2,3-dimethylphenyl)propanoic acid] | 6.71 | 6.17 |
